Experimental data as given in US20180319766A1, “CO-CRYSTALS OF BENZIMIDAZOLE COMPOUNDS” (FAES FARMA, S.A., priority 2015, published 2018).

What was measured:
ΔpKa bilastine-coformer = type: physicochemical
[1] = Stability of the cocrystal under forced conditions of humidity and temperature (ICH), XRPD; type: physicochemical; conditions: 40° C.
Description: […] The solids were analyzed by XRPD every day during the first week and once a week afterwards, to detect possible crystalline transformations.

[2] = bilastine as zwitterion; cited from earlier work
[3] = pH range 5-8; cited from earlier work
[4] = Solubility of cocrystals in water at room temperature, relative to bilastine (HPLC); conditions: 400 mg of product in 24 ml, result in words, data only in figures
Description: Solubility of cocrystals was determined by stirring the product in water at room temperature (400 mg of product in 24 ml of water, 60 vol.). The product was previously milled in order to reduce the crystal size effect. A sample is collected and filtered using a sintered funnel (n° 3) periodically (30, 60, 180 min and after overnight). The filtered solid was immediately analyzed by XRPD, while the mother liquors are filtered through a 0.22 um filter and the concentration of Bilastine is determined by HPLC area (in some experiments where a high solubility was detected the mother liquor was diluted by a factor 10). This concentration is compared with the Bilastine concentration obtained in the same conditions in order to determine a relative solubility.
HPLC analyses were performed by duplicate on an Agilent 1100 series apparatus with a XBridge C-18 column at room temperature. 25μL sample were injected. The mobile phase (isocratic) was set as following: 52%(Methanol:aqueous octylamine 0.01M pH=7, 65:35)−42% (Acetonitrile:aqueous octylamine 0.01M pH=7, 60:40)

| SMILES | Time the crystalline form is stable under forced conditions (XRPD) ([1]; 70±5% RH) | Time the crystalline form is stable under forced conditions (XRPD) ([1]; 75±5% RH) | further results |
| --- | --- | --- | --- |
| O=C(O)C[C@H](O)C(=O)O [L-Malic acid] | – | – | ΔpKa bilastine-coformer (ΔpKa bilastine-coformer): 0.94 |
| CCOCCn1c(C2CCN(CCc3ccc(C(C)(C)C(=O)O)cc3)CC2)nc2ccccc21.O=C(O)CCCC(=O)O [GL(V)] | at least 4 weeks | – | – |
| CCOCCn1c(C2CCN(CCc3ccc(C(C)(C)C(=O)O)cc3)CC2)nc2ccccc21 [bilastine, 2-[4-(2-{4-[1-(2-Ethoxyethyl)-1H-benzimidazol-2-yl]-1-piperidinyl}ethyl)phenyl]-2-methylpropanoic acid] | – | – | pKa of the acid function (carboxylate) [2]: 4.4; pKa of the base function (protonated amine) [2]: 8.8; Solubility [3]: around 500 μg/mL |
| CCOCCn1c(C2CCN(CCc3ccc(C(C)(C)C(=O)O)cc3)CC2)nc2ccccc21.CCOCCn1c(C2CCN(CCc3ccc(C(C)(C)C(=O)O)cc3)CC2)nc2ccccc21.O=C(O)CCCC(=O)O [GL(I)] | at least 4 weeks | – | – |
| CCOCCn1c(C2CCN(CCc3ccc(C(C)(C)C(=O)O)cc3)CC2)nc2ccccc21.CCOCCn1c(C2CCN(CCc3ccc(C(C)(C)C(=O)O)cc3)CC2)nc2ccccc21.O=C(O)CCC(=O)O [SU(VII)] | – | at least 1 week | – |
| CCOCCn1c(C2CCN(CCc3ccc(C(C)(C)C(=O)O)cc3)CC2)nc2ccccc21.O=C(O)CCC(=O)O [SU(VI)] | – | at least 1 week | – |
| CC=CC=CC(=O)O.CCOCCn1c(C2CCN(CCc3ccc(C(C)(C)C(=O)O)cc3)CC2)nc2ccccc21.CCOCCn1c(C2CCN(CCc3ccc(C(C)(C)C(=O)O)cc3)CC2)nc2ccccc21 [SO(I)] | – | at least 1 week | Solubility comparison with bilastine BLN(I) [4]: improves greatly the solubility of bilastine |
| CCOCCn1c(C2CCN(CCc3ccc(C(C)(C)C(=O)O)cc3)CC2)nc2ccccc21.CCOCCn1c(C2CCN(CCc3ccc(C(C)(C)C(=O)O)cc3)CC2)nc2ccccc21.Nc1ccc(C(=O)O)cc1 [AB(VIII)] | – | at least 1 week | – |
| CCOCCn1c(C2CCN(CCc3ccc(C(C)(C)C(=O)O)cc3)CC2)nc2ccccc21.CCOCCn1c(C2CCN(CCc3ccc(C(C)(C)C(=O)O)cc3)CC2)nc2ccccc21.O=C(O)CCCCC(=O)O [AD(III)] | at least 1 weeks | – | – |
| CCOCCn1c(C2CCN(CCc3ccc(C(C)(C)C(=O)O)cc3)CC2)nc2ccccc21.O=C(O)CCCCC(=O)O [AD(I)] | at least 1 weeks | – | – |
| CCOCCn1c(C2CCN(CCc3ccc(C(C)(C)C(=O)O)cc3)CC2)nc2ccccc21.Nc1ccc(C(=O)O)cc1 [AB(VII)] | – | at least 1 week | – |
